Measured values reported in US10654855B2 (priority 2007, dated 2020).

Biological target: AKT1 (PKBα) (Homo sapiens (Human), UniProt P31749)
Settings: read-out: In vitro PKBα Mean IC50; AKT1/PKBα active enzyme; values marked * tested once only

Sequence of AKT1 (PKBα) (P31749 whole entry): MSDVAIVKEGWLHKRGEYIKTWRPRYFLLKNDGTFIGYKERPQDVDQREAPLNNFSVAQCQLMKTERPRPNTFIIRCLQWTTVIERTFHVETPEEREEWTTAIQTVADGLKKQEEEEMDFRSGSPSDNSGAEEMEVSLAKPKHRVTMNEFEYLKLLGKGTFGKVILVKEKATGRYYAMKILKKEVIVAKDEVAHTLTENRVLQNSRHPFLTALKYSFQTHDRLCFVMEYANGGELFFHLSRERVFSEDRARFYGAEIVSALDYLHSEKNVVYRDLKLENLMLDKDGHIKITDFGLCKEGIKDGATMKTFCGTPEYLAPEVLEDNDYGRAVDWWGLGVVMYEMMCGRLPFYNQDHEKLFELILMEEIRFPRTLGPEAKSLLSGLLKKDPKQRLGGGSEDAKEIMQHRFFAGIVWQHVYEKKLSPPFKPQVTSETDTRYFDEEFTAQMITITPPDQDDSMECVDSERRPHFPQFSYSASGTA

IC50: 50 nM
SMILES: C[C@H](NC(=O)C1(N)CCN(c2ncnc3[nH]ccc23)CC1)c1ccc(C#N)cc1 [Example 39, 4-amino-N-[(1S)-1-(4-cyanophenyl)ethyl]-1-(7H-pyrrolo[2,3-d]pyrimidin-4-yl)piperidine-4-carboxamide]
